Assay results taken from patent US8293909B2, “Compounds for the treatment of hepatitis C” (Bristol-Myers Squibb Company, priority 2008, dated 2012).

What was measured:
[1] = target: T1, HCV NS5B RdRp genotype 1b (Hepatitis C virus genotype 1b, UniProt Q9WMX2); assay: HCV NS5B RdRp enzyme assay (standard / modified); format: biochemical; conditions: Table 1; HCV NS5B genotype 1b
T1 construct: The protein was expressed with an 18 amino acid C-terminal truncation to enhance the solubility; made in house; host or cells: E. coli BL21(DE3), pET21a vector
T1 sequence (Q9WMX2 2420-2992): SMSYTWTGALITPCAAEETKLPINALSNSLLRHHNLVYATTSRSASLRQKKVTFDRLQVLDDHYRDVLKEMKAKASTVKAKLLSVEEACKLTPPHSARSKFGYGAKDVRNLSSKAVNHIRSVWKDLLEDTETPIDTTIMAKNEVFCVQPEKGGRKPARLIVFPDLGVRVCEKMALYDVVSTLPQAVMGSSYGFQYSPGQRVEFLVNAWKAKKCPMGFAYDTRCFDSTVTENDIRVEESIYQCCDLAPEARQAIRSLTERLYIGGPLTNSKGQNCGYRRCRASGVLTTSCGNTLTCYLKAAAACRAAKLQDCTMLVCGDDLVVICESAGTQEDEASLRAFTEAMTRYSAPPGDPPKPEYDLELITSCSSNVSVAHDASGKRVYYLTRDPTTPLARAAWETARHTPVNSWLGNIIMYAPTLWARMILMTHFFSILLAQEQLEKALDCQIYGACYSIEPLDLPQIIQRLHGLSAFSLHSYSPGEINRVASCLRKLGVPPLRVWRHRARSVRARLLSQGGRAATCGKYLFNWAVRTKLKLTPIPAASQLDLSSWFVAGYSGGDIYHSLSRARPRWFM
Experimental: HCV NS5B RdRp cloning, expression, and purification. The cDNA encoding the NS5B protein of HCV, genotype 1b, was cloned into the pET21a expression vector. The protein was expressed with an 18 amino acid C-terminal truncation to enhance the solubility. The E. coli competent cell line BL21(DE3) was used for expression of the protein. Cultures were grown at 37° C. for ˜4 hours until the cultures reached an optical density of 2.0 at 600 nm. The cultures were cooled to 20° C. and induced with 1 mM IPTG. Fresh ampicillin was added to a final concentration of 50 μg/ml and the cells were grown overnight at 20° C.
Cell pellets (3 L) were lysed for purification to yield 15-24 mgs of purified NS5B. The lysis buffer consisted of 20 mM Tris-HCl, pH 7.4, 500 mM NaCl, 0.5% triton X-100, 1 mM DTT, 1 mM EDTA, 20% glycerol, 0.5 mg/ml lysozyme, 10 mM MgCl2, 15 ug/ml deoxyribonuclease I, and Complete™ protease inhibitor tablets (Roche). After addition of the lysis buffer, frozen cell pellets were resuspended using a tissue homogenizer. To reduce the viscosity of the sample, aliquots of the lysate were sonicated on ice using a microtip attached to a Branson sonicator. The sonicated lysate was centrifuged at 100,000×g for 1 hr at 4° C. and filtered through a 0.2 μm filter unit (Corning).
The protein was purified using three sequential chromatography steps: Heparin sepharose CL-6B, polyU sepharose 4B, and Hitrap SP sepharose (Pharmacia). The chromatography buffers were identical to the lysis buffer but contained no lysozyme, deoxyribonuclease I, MgCl2 or protease inhibitor and the NaCl concentration of the buffer was adjusted according to the requirements for charging the protein onto the column. Each column was eluted with a NaCl gradient which varied in length from 5-50 column volumes depending on the column type. After the final chromatography step, the resulting purity of the enzyme is >90% based on SDS-PAGE analysis. The enzyme was aliquoted and stored at −80° C.
Standard HCV NS5B RdRp enzyme assay. HCV RdRp genotype 1b assays were run in a final volume of 60 μl in 96 well plates (Costar 3912). The assay buffer is composed of 20 mM Hepes, pH 7.5, 2.5 mM KCl, 2.5 mM MgCl2, 1 mM DTT, 1.6 U RNAse inhibitor (Promega N2515), 0.1 mg/ml BSA (Promega R3961), and 2% glycerol. All compounds were serially diluted (3-fold) in DMSO and diluted further in water such that the final concentration of DMSO in the assay was 2%. HCV RdRp genotype 1b enzyme was used at a final concentration of 28 nM. A polyA template was used at 6 nM, and a biotinylated oligo-dT12 primer was used at 180 nM final concentration. Template was obtained commercially (Amersham 27-4110). Biotinylated primer was prepared by Sigma Genosys. 3H-UTP was used at 0.6 μCi (0.29 μM total UTP). Reactions were initiated by the addition of enzyme, incubated at 30° C. for 60 min, and stopped by adding 25 μl of 50 mM EDTA containing SPA beads (4 μg/μl, Amersham RPNQ 0007). Plates were read on a Packard Top Count NXT after >1 hr incubation at room temperature.
Modified HCV NS5B RdRp enzyme assay. A modified enzyme assay was performed essentially as described for the standard enzyme assay except for the following: The biotinylated oligo dT12 primer was precaptured on streptavidin-coated SPA beads by mixing primer and beads in assay buffer and incubating at room temperature for one hour. Unbound primer was removed after centrifugation. The primer-bound beads were resuspended in 20 mM Hepes buffer, pH 7.5 and used in the assay at final concentrations of 20 nM primer and 0.67 μg/μl beads. Order of addition in the assay: enzyme (14 nM) was added to diluted compound followed by the addition of a mixture of template (0.2 nM), 3H-UTP (0.6 μCi, 0.29 μM), and primer-bound beads, to initiate the reaction; concentrations given are final. Reactions were allowed to proceed for 4 hours at 30° C.
IC50 values for compounds were determined using seven different [I]. […]

HCV replicon cells = assay: HCV replicon assay (FRET or luciferase readout); format: cell-based; conditions: Hepatitis C virus, Table 1
From the text: FRET Assay Preparation. To perform the HCV FRET screening assay, 96-well cell culture plates were used. The FRET peptide (Anaspec, Inc.) (Taliani et al., Anal. Biochem. 1996, 240, 60-67) contains a fluorescence donor, EDANS, near one end of the peptide and an acceptor, DABCYL, near the other end. The fluorescence of the peptide is quenched by […] resonance energy transfer (RET) between the donor and the acceptor, but as the NS3 protease cleaves the peptide the products are released from RET quenching and the fluorescence of the donor becomes apparent. The assay reagent was made as follows: 5× cell Luciferase cell culture lysis reagent from Promega (#E153A) diluted to 1× with dH2O, NaCl added to 150 mM final, the FRET peptide diluted to 20 μM final from a 2 mM stock.
To prepare plates, HCV replicon cells, with or without a Renilla luciferase reporter gene, were trypsinized and placed into each well of a 96-well plate with titrated test compounds added in columns 3 through 12; columns 1 and 2 contained a control compound (HCV protease inhibitor), and the bottom row contained cells without compound. The plates were then placed in a CO2 incubator at 37° C.
Assays. Subsequent to addition of the test compounds described above (FRET Assay Preparation), at various times the plate was removed and Alamar blue solution (Trek Diagnostics, #00-100) was added per well as a measure of cellular toxicity. After reading in a Cytoflour 4000 instrument (PE Biosystems), plates were rinsed with PBS and then used for FRET assay by the addition of 30 ul of the FRET peptide assay reagent described above (FRET Assay Preparation) per well. The plate was then placed into the Cytoflour 4000 instrument which had been set to 340 excite/490 emission, automatic mode for 20 cycles and the plate read in a kinetic mode. Typically, the signal to noise using an endpoint analysis after the reads was at least three-fold. Alternatively, after Alamar blue reading, plates were rinsed with PBS, 50 ul of DMEM (high glucose) without phenol red was added and plates were then used for luciferase assay using the Promega Dual-Glo Luciferase Assay System.
Compound analysis was determined by quantification of the relative HCV replicon inhibition and the relative cytotoxicity values. To calculate cytoxicity values, the average Alamar Blue fluorescence signals from the control wells were set as 100% non-toxic. The individual signals in each of the compound test wells were then divided by the average control signal and multiplied by 100% to determine […]. To calculate the HCV replicon inhibition values, an average background value was obtained from the two wells containing the highest amount of HCV protease inhibitor at the end of the assay period. These numbers were similar to those obtained from naïve Huh-7 cells.
The background numbers were then subtracted from the average signal obtained from the control wells and this number was used as 100% activity. The individual signals in each of the compound test wells were then divided by the averaged control values after background subtraction and multiplied by 100% to determine percent activity. EC50 values for a protease inhibitor titration were calculated as the concentration which caused a 50% reduction in FRET or luciferase activity. The two numbers generated for the compound plate, percent cytoxicity and percent activity were used to determine compounds of interest for further analysis.

SMILES | IC50 [1] | EC50 (HCV replicon cells)
CNC(=O)c1c(-c2ccccc2)nn2cc(I)ccc12 | > 10000 nM | > 10000 nM
CNC(=O)c1cccc(-c2ccc3c(C(=O)NC)c(-c4ccccc4)nn3c2)c1 | > 10000 nM | > 10000 nM
CNC(=O)c1c(-c2ccccc2)nn2cc(N3CCOC3=O)ccc12 | > 10000 nM | > 10000 nM
CNC(=O)c1c(-c2ccccc2)nn2cc(-c3ccccc3C)ccc12 | > 10000 nM | > 10000 nM
CNC(=O)c1c2cc(-c3cccc(C(=O)NC(C)(C)C)c3)ccc2nn1-c1ccc(F)cc1 | 1000 to 10000 nM | 1000 to 10000 nM
CNC(=O)c1c2cc(-c3cccc(C(=O)NC(C)(C)c4ccccc4)c3)ccc2nn1-c1ccc(F)cc1 | 2 to 250 nM | 250 to 1000 nM
CNC(=O)c1c2cc(-c3cccc(C(=O)NC4(c5ccccn5)CC4)c3)ccc2nn1-c1ccc(F)cc1 | 1000 to 10000 nM | 1000 to 10000 nM
CNC(=O)c1c(-c2ccc(F)cc2)nn2ccc(-c3cc(C(=O)NC4(c5ccc(F)cc5)CC4)ccc3C)cc12 | 2 to 250 nM | 2 to 250 nM
CCN(c1cn2nc(-c3ccc(F)cc3)c(C(=O)NC)c2cc1-c1ccccc1)S(C)(=O)=O | 2 to 250 nM | 250 to 1000 nM
CNC(=O)c1c2cc(-c3cc(C(=O)NC(C)(C)c4ccccc4)ccc3Cl)ccc2nn1-c1ccc(F)cc1 | 2 to 250 nM | 2 to 250 nM
CNC(=O)c1c2cc(-c3cc(C(=O)NC(C)(C)c4ccccc4)ccc3C)ccc2nn1-c1ccc(F)cc1 | 2 to 250 nM | 2 to 250 nM
CCN(c1cn2nc(-c3ccc(F)cc3)c(C(=O)NC)c2cc1C1CCCCC1)S(C)(=O)=O | 1000 to 10000 nM | 1000 to 10000 nM
CCN(c1cn2nc(-c3ccc(F)cc3)c(C(=O)NC)c2cc1C1CCCC1)S(C)(=O)=O | 250 to 1000 nM | 1000 to 10000 nM
CCN(c1cn2nc(-c3ccc(F)cc3)c(C(=O)NC)c2cc1C1CC1)S(C)(=O)=O | 2 to 250 nM | 2 to 250 nM
CCN(c1cn2nc(-c3ccc(F)cc3)c(C(=O)NC)c2cc1-c1cc(C(=O)NC2(c3ccc(F)cc3)CC2)ccc1C)S(C)(=O)=O | 2 to 250 nM | 2 to 250 nM
CNC(=O)c1c(-c2ccc(F)cc2)nn2ccc(-c3cc(C(=O)NC4(c5ccccc5)CCC4)ccc3C)cc12 | 2 to 250 nM | 2 to 250 nM
CNC(=O)c1c(-c2ccc(F)cc2)oc2ccc(-c3cc(C(=O)NC4(c5ccccn5)CC4)ccc3C)nc12 | 2 to 250 nM | 2 to 250 nM
CNC(=O)c1c(-c2ccc(F)cc2)nc2ccc(-c3ccc(-c4ccccc4)c(C(=O)NCC(C)C)c3)cn12 | > 500 nM | 250 to 1000 nM

SMILES | IC50 [1] | EC50 (HCV replicon cells)
CNC(=O)c1c(-c2ccc(F)cc2)nc2cc(C)c(-c3cc(C(=O)NC(C)(C)c4ccccc4)ccc3C)cn12 | 2 to 250 nM | 2 to 250 nM
CNC(=O)c1c(-c2ccc(F)cc2)oc2cnc(-c3cc(C(=O)NC4(c5ccccn5)CC4)ccc3C)cc12 | 2 to 250 nM | 2 to 250 nM
CNC(=O)c1c(-c2ccc(F)cc2)nn2c(C)cc(-c3cc(C(=O)NC4(c5ccccc5)CC4)ccc3C)cc12 | 2 to 250 nM | 2 to 250 nM
CNC(=O)c1c(-c2ccc(F)cc2)oc2ccc(-c3cccc(C(=O)NC4(c5ccccn5)CC4)c3)nc12 | 1000 to 10000 nM | 250 to 1000 nM
CNC(=O)c1c(-c2ccc(F)cc2)oc2cnc(-c3cccc(C(=O)NC4(c5ccccn5)CC4)c3)cc12 | 2 to 250 nM | 1000 to 10000 nM
CNC(=O)c1c(-c2ccc(F)cc2)nn2cc(F)c(-c3cc(C(=O)NC4(c5ccccc5)CC4)ccc3C)cc12 | 2 to 250 nM | 2 to 250 nM
CNC(=O)c1c(-c2ccc(F)cc2)nn2ccc(-c3cc(C(=O)NC4(c5nc(C)no5)CC4)ccc3C)c(F)c12 | 1000 to 10000 nM | > 10000 nM
CNC(=O)c1c(-c2ccc(F)cc2)nn2c(F)cc(-c3cc(C(=O)NC4(c5ccccc5)CC4)ccc3C)cc12 | 2 to 250 nM | 2 to 250 nM
CNC(=O)c1c(-c2ccc(F)cc2)nn2c(F)cc(-c3cc(C(=O)NC4(c5ccccn5)CC4)ccc3C)cc12 | 2 to 250 nM | 2 to 250 nM
CCN(c1cn2nc(-c3ccc(F)cc3)c(C(=O)NC)c2cc1-c1cc(C(=O)NC2(c3ccccn3)CC2)ccc1C)S(C)(=O)=O | 2 to 250 nM | 2 to 250 nM
CNC(=O)c1c(-c2ccc(F)cc2)nn2ccc(-c3cc(C(=O)NC4(C5CCCCC5)CC4)c(OC)cc3C)c(F)c12 | 2 to 250 nM | 2 to 250 nM
CNC(=O)c1c(-c2ccc(F)cc2)nn2ccc(-c3cc(C(=O)NC4(C)CC4)c(OC)cc3C)c(F)c12 | 2 to 250 nM | 2 to 250 nM
CNC(=O)c1c(-c2ccc(F)cc2)nn2ccc(-c3cc(C(=O)NC4(c5ccc(F)cc5)CC4)c(OC)cc3C)c(F)c12 | 2 to 250 nM | 2 to 250 nM
CNC(=O)c1c(-c2ccc(F)cc2)nn2ccc(-c3cc(C(=O)NC4(C5CC5)CC4)c(OC)cc3C)c(F)c12 | 2 to 250 nM | 2 to 250 nM
CNC(=O)c1c(-c2ccc(F)cc2)nn2ccc(-c3cc(C(=O)NC4(C(C)C)CC4)c(OC)cc3C)c(F)c12 | 2 to 250 nM | 2 to 250 nM
CNC(=O)c1c(-c2ccc(F)cc2)nn2ccc(-c3cc(C(=O)NC4(c5cccc(F)c5)CC4)c(OC)cc3C)c(F)c12 | 2 to 250 nM | 2 to 250 nM
CNC(=O)c1c(-c2ccc(F)cc2)nn2ccc(-c3cc(C(=O)NC4(c5ccccc5F)CC4)c(OC)cc3C)c(F)c12 | 2 to 250 nM | 250 to 1000 nM
